Source: US7425635B2, “Prodrugs and conjugates of thiol- and selenol-containing compounds and methods of use thereof” (University of Utah Research Foundation, priority 1997, dated 2008)
Where two headings read alike, the source gives them in different places. Marks after values point to notes of the source that are not given here.

What was measured:
Ugt1a9 = experiment: Northern blot of liver Ugt1a9 mRNA after ip dosing; type: in vivo, mice; conditions: mean ± SEM
Protocol: (§1) Linking efficacy to biochemical parameters and a mechanism was limited in the initial study by only two parameters, [Se] and GPx activity. The in-vivo effects of selenazolidine compounds were then evaluated using, in addition to GPx, glutathione S-transferases (GSTs), quinone oxidoreductases (NQORs), UDP-glucuronosyltransferases (UGTs), and microsomal epoxide hydrolase (mEH). To investigate transcriptional changes of these classes of enzymes, it was necessary to develop a battery of cDNA probes for use in Northern blot analysis of RNA extracted from treated animals (Table 2).
(§2) Whether the selenaproline compounds had the ability to up-regulate the transcription of Phase II and/or other “protective” enzymes was first evaluated following a single dose of each (Table 3). […] The experiment was repeated but with a 7-day treatment regimen (Table 4), the time period for which the compounds were given in the diet before NNK administration in the tumor experiment reported in Table 1. […] With multiple doses, SCA induced Ugt1a9, an mRNA that was not changed with a single dose. […] The elevation in the Gst-mu transcript was unique to multiple OSCA treatment. The elevation of the GST-alpha mRNA was also seen with SCA treatment. Microsomal epoxide hydrolase mRNA was robustly elevated by multiple doses of all three selenaproline compounds, an effect not anticipated from the single dose experiment where not even minor changes were apparent.

Gst-mu = experiment: Northern blot of liver Gst-mu mRNA after ip dosing; type: in vivo, mice; conditions: mean ± SEM
Protocol: as §1, §2

GST = experiment: Hepatic cytosolic GST (CDNB) activity after 7 daily ip doses; type: in vivo, mice; conditions: 7 daily doses ip, hepatic cytosol; naive 5248 ± 503
NNK lung tumor = NNK lung tumor four-month feeding study; type: in vivo; conditions: mice, diet 15 ppm Se from 1 week prior to NNK (10 umol, ip), sacrificed after 16 weeks
Protocol: (§3) Three novel selenazolidines, 2-methyl-, 2-oxo- and 2-unsubstituted (i.e., selenaproline) selenazolidine-4[R]-carboxylic acid (MSCA, OSCA, and SCA respectively) that had been synthesized as prodrugs of selenocysteine were evaluated for their potential to act as cancer chemopreventive agents. [Se] and GPx activity were evaluated.
(§4) Where indicated, mice (16 g) were given diets fortified with SCA, MSCA or OSCA (15 ppm Se) for 1 week prior to NNK (10 umol, ip). Two other groups received the unmodified AIN-76A diet, with and without NNK administration. All groups were maintained on their pretreatment diet until the animals were sacrificed after 16 weeks. Liver GPx activity is expressed as μmol NADPH oxidized [in regenerating GSH]/min/mg 10,000 g×20 min supernatant protein; RBC activity as μmol/min/mg RBC lysate hemoglobin.

[1] = Body weight gain and liver weight in four-month feeding study; type: in vivo; conditions: mice, diet 15 ppm Se, NNK
Protocol: as §4

GPx [2] = experiment: Northern blot of liver GPx mRNA after ip dosing; type: in vivo, mice; conditions: mean ± SEM
Protocol: as §1, §2

GPx [3] = experiment: Hepatic and RBC (tButylOOH) GPx activity in four-month feeding study; type: in vivo; conditions: mice, diet 15 ppm Se, NNK; for Hepatic (tButylOOH) GPx: liver
Protocol: as §3, §4

mEH = experiment: Northern blot of liver mEH mRNA after ip dosing; type: in vivo, mice; conditions: mean ± SEM
Protocol: as §1, §2

Gst-alpha = experiment: Northern blot of liver Gst-alpha mRNA after ip dosing; type: in vivo, mice; conditions: mean ± SEM
Protocol: as §1, §2

Ugt1a1 = experiment: Northern blot of liver Ugt1a1 mRNA after ip dosing; type: in vivo, mice; conditions: mean ± SEM
Protocol: as §1, §2

Ugt1a6 = experiment: Northern blot of liver Ugt1a6 mRNA after ip dosing; type: in vivo, mice; conditions: mean ± SEM
Protocol: as §1, §2

GPx [4] = experiment: Hepatic cytosolic GPx (H202) activity after 7 daily ip doses; type: in vivo, mice; conditions: 7 daily doses ip, hepatic cytosol; naive 894 ± 36
E. coli AB1157 [5] = experiment: Toxicity in E. coli AB1157 (colony forming ability); type: cell-based
Protocol: (§5) A well characterized bacterial system was used as an initial screen for radioprotective activity of the novel compounds. A single colony of the bacteria, growing on a plate of LB medium (10 g tryptone, 5 g yeast extract, plus 5 g NaCl in 1 L water), was inoculated into 2 mL LB and incubated overnight. 20 mL LB medium were then inoculated with 600 μL of the overnight culture, and incubated with shaking at 37° C., 250 rpm. The cells were collected and washed with phosphate buffered saline. At this point the bacteria could be irradiated, treated with drug, etc., as outlined below. After dilution of the treated cells to 100 cells per 100 μL, they are plated out and incubated overnight. Cell viability is then measured by colony forming ability.
The toxicity of the compounds of interest in this system was explored.

[6] = test system: 'protective' enzyme mRNAs; experiment: Northern blot of 'protective' enzyme mRNAs (all probes) after ip dosing; type: in vivo, mice; conditions: 7 daily doses ip, with corn oil
Protocol: as §1
(§6) Many of the mRNA changes seen with a single dose were not sustained with multiple dosing. Changes in Ugt transcripts after multiple dosing were noticeably absent. Unique to BSCA among the four new compounds investigated was its ability to induce Gst-alpha, Gst-mu and GPx mRNAs. For the Gst-alpha transcripts, which appeared elevated by corn oil, the BSCA increase was much greater than the vehicle alone (8-fold versus 2-fold) and was statistically significant (p<0.05). BSCA shared with PhOHSCA the ability to elevate mEH mRNA.

[7] = sALT (hepatotoxicity) after 7 daily ip doses; type: in vivo; set-up: unit not given here; conditions: 7 daily doses ip, 1.25 mg Se/kg, with corn oil; untreated mice 37.5 ± 2.9
Description: as §6

E. coli AB1157 [8] = experiment: Radioprotection in E. coli AB1157; type: cell-based; conditions: E. coli AB1157, agent 1 hour before irradiation at 0.6 kGy
Protocol: Radioprotection in E. coli AB1157
as §5
Growth curves were generated for the bacteria in the absence of any treatment to provide experience with basic handling as well as important baseline information. The radiation dose response of the system was investigated irradiating bacterial cultures in a Shepherd Mark I ^137Cs irradiator over a dose range of 0 to 1 kGy. The dose-response curves are linear and reproducible from day to day.
Radioprotection experiments were also conducted in the bacterial system. […] Surviving fraction compared to that seen in control (untreated) cells, which were not irradiated, was then calculated.

[9] = 1 dose ip, 1.25 mg Se/kg, liver RNA 24 hours after dosing
[10] = 7 daily doses ip, 1.25 mg Se/kg, liver RNA 24 hours after the last dose
[11] = 1 dose ip, 1.25 mg Se/kg in corn oil, liver RNA 24 hours after dosing
[12] = 7 daily doses ip, 1.25 mg Se/kg, with corn oil, liver RNA 24 hours after the last dose

CC1N[C@H](C(=O)O)C[Se]1 (mixture of isomers) [MSCA, 2(R,S)-Methylselenazolidine-4(R)-carboxylic acid]
Ugt1a9 mRNA (Ugt1a9; [9]): 1.47 ± 0.18 fold change from naive | Ugt1a9 mRNA (Ugt1a9; [10]): 1.22 ± 0.29 fold change from naive | Gst-mu mRNA (Gst-mu; [9]): 1.07 ± 0.57 fold change from naive | Gst-mu mRNA (Gst-mu; [10]): 1.65 ± 0.18 fold change from naive | GST (CDNB) activity (GST): 6948 ± 502 nmol/mg cytosol (100,000 g supernatant) protein/min | NNK Tumors (NNK lung tumor): 8.3 ± 0.9 | Body wt gain (%) [1]: 49.3% | Liver weight [1]: 1.17 ± 0.02 g | GPx (1.5 kb) mRNA (GPx [2]; [9]): 1.65 ± 0.27 fold change from naive | GPx mRNA (GPx [2]; [10]): 1.43 ± 0.35 fold change from naive | RBC (tButylOOH) GPx (GPx [3]): 220 ± 32 μmol/min/mg RBC lysate hemoglobin | Hepatic (tButylOOH) GPx (GPx [3]): 564 ± 46 μmol NADPH oxidized/min/mg 10, | mEH mRNA (mEH; [9]): 1.06 ± 0.12 fold change from naive | mEH mRNA (mEH; [10]): 3.35 ± 1.21 fold change from naive | Gst-alpha mRNA (Gst-alpha; [9]): 1.00 ± 0.19 fold change from naive | Gst-alpha mRNA (Gst-alpha; [10]): 1.18 ± 0.33 fold change from naive | Ugt1a1 mRNA (Ugt1a1; [9]): 1.07 ± 0.11 fold change from naive | Ugt1a1 mRNA (Ugt1a1; [10]): 1.15 ± 0.09 fold change from naive | Ugt1a6 mRNA (Ugt1a6; [9]): 1.21 ± 0.28 fold change from naive | Ugt1a6 mRNA (Ugt1a6; [10]): 1.02 ± 0.15 fold change from naive | GPx (H202) activity (GPx [4]): 944 ± 32 nmol/mg cytosol (100,000 g supernatant) protein/min

NCCS [cysteamine, reference compound]
Toxicity in the bacterial system (E. coli AB1157 [5]): profound toxicity

O=C(O)C1C[Se]C(c2ccccc2)N1 (mixture of isomers) [PhSCA, 2-phenyl-SCAS]
Ugt1a9 mRNA (Ugt1a9; [11]): 2.14 ± 0.54 fold change from naive | Ugt1a9 mRNA (Ugt1a9; [12]): 0.83 ± 0.08 fold change from naive | Gst-mu mRNA (Gst-mu; [11]): 0.74 ± 0.16 fold change from naive | Gst-mu mRNA (Gst-mu; [12]): 1.01 ± 0.27 fold change from naive | Induction of 'protective' enzyme mRNAs (any) [6]: failed to induce any mRNAs | GPx mRNA (GPx [2]; [11]): 0.74 ± 0.16 fold change from naive | GPx mRNA (GPx [2]; [12]): 1.46 ± 0.35 fold change from naive | sALT [7]: 37.3 ± 1.4 | mEH mRNA (mEH; [11]): 0.98 ± 0.27 fold change from naive | mEH mRNA (mEH; [12]): 0.80 ± 0.15 fold change from naive | Gst-alpha mRNA (Gst-alpha; [11]): 0.63 ± 0.14 fold change from naive | Gst-alpha mRNA (Gst-alpha; [12]): 2.29 ± 0.68 fold change from naive | Ugt1a1 mRNA (Ugt1a1; [11]): 1.41 ± 0.30 fold change from naive | Ugt1a1 mRNA (Ugt1a1; [12]): 1.32 ± 0.12 fold change from naive | Ugt1a6 mRNA (Ugt1a6; [11]): 1.78 ± 0.54 fold change from naive | Ugt1a6 mRNA (Ugt1a6; [12]): 0.96 ± 0.04 fold change from naive

NCCCNCCS [WR-1065, reference compound]
Toxicity in the bacterial system (E. coli AB1157 [5]; E. coli AB1157, cell viability by colony forming ability): neither WR-1065 nor its 2-oxo prodrug produced any toxicity | Radioprotection (surviving fraction) (E. coli AB1157 [8]): greatest amount of protection

O=C1N[C@H](C(=O)O)C[Se]1 [OSCA, 2-Oxoselenazolidine-4(R)-carboxylic acid]
Gst-mu mRNA (Gst-mu; [9]): 1.38 ± 0.33 fold change from naive | GST (CDNB) activity (GST): 6887 ± 1142 nmol/mg cytosol (100,000 g supernatant) protein/min | Body wt gain (%) [1]: 39.9* % | Liver weight [1]: 1.02 ± 0.02 g | GPx (1.5 kb) mRNA (GPx [2]; [9]): 0.80 ± 0.22 fold change from naive | GPx mRNA (GPx [2]; [10]): 1.13 ± 0.39 fold change from naive | RBC (tButylOOH) GPx (GPx [3]): 281 ± 24 μmol/min/mg RBC lysate hemoglobin | Hepatic (tButylOOH) GPx (GPx [3]): 518 ± 59 μmol NADPH oxidized/min/mg 10, | mEH mRNA (mEH; [9]): 0.88 ± 0.19 fold change from naive | mEH mRNA (mEH; [10]): 2.91 ± 1.48 fold change from naive | Gst-alpha mRNA (Gst-alpha; [9]): 1.61 ± 0.53 fold change from naive | GPx (H202) activity (GPx [4]): 880 ± 72 nmol/mg cytosol (100,000 g supernatant) protein/min
